From ChEMBL document CHEMBL3885861, “Open TG-GATES”

Species: Rattus norvegicus
Assay: Open TG-GATES - Regimen: Daily Repeat
Assay type: toxicity, organism-based, Sprague-Dawley
Design: regimen Daily Repeat, gender Male, age 6 weeks
Details: in vivo, iv, route intravenous injection; for KIDNEY_L / KIDNEY_R / KIDNEY_TOTAL: tissue Kidney; for LIVER: tissue Liver; for ALP / ALT / AST / CRE / DBIL / GLC / IP / K / LDH / PL / RALB / TBIL / TC / TG / TP / gamma-GTP / Na / Ca / BUN: tissue Plasma
[1] = 3 mg/kg, 72 h, dose level Middle, time 3 day
[2] = 3 mg/kg, 72 h, tissue Blood, dose level Middle, time 3 day
[3] = 3 mg/kg, […], dose level Middle, time 7 day
[4] = 3 mg/kg, […], dose level Middle, time 14 day
[5] = 3 mg/kg, […], dose level Middle, time 28 day
[6] = 3 mg/kg, […], tissue Blood, dose level Middle, time 7 day
[7] = 3 mg/kg, […], tissue Blood, dose level Middle, time 14 day
[8] = 3 mg/kg, […], tissue Blood, dose level Middle, time 28 day
[9] = 10 mg/kg, 72 h, dose level High, time 3 day
[10] = 10 mg/kg, 72 h, tissue Blood, dose level High, time 3 day
[11] = 10 mg/kg, […], dose level High, time 7 day
[12] = 10 mg/kg, […], dose level High, time 14 day
[13] = 10 mg/kg, […], dose level High, time 28 day
[14] = 10 mg/kg, […], tissue Blood, dose level High, time 7 day
[15] = 10 mg/kg, […], tissue Blood, dose level High, time 14 day
[16] = 10 mg/kg, […], tissue Blood, dose level High, time 28 day

CARBOPLATIN
TERMINAL_BW [1]: 220.6 g | APTT [2]: 24.1 s | Bas [2]: 0% | Eos [2]: 1.2% | Fbg [2]: 324.4 mg/dL | Ht [2]: 41.2% | Lym [2]: 74.6% | MCHC [2]: 32.6% | MCV [2]: 62.7 fL | Mono [2]: 3% | Neu [2]: 20.6% | PT [2]: 16.5 s | Plat [2]: 127.4 x10_4/uL | RBC [2]: 657.4 x10_4/ul | Ret [2]: 4% | WBC [2]: 89.9 x10_2/uL | KIDNEY_L [1]: 0.9 g | KIDNEY_R [1]: 0.9 g | KIDNEY_TOTAL [1]: 1.9 g | LIVER [1]: 9.8 g | ALP [1]: 1530.2 IU/L | ALT [1]: 43 IU/L | AST [1]: 74.8 IU/L | CRE [1]: 0.2 mg/dL | DBIL [1]: 0 mg/dL | GLC [1]: 173.6 mg/dL | IP [1]: 7.1 mg/dL | K [1]: 4.7 meq/L | LDH [1]: 185.8 IU/L | PL [1]: 129.2 mg/dL | RALB [1]: 3.1 g/dL | TBIL [1]: 0.004 mg/dL | TC [1]: 65 mg/dL | TG [1]: 104.6 mg/dL | TP [1]: 5.5 g/dL | gamma-GTP [1]: 1.4 IU/L | TERMINAL_BW [3]: 244.7 g | TERMINAL_BW [4]: 304.5 g | TERMINAL_BW [5]: 349.4 g | APTT [6]: 23.6 s | Bas [6]: 0% | Eos [6]: 0.8% | Fbg [6]: 296.2 mg/dL | MCHC [6]: 32.4% | MCV [6]: 62.2 fL | Mono [6]: 2.4% | Neu [6]: 16.6% | Plat [6]: 130.4 x10_4/uL | RBC [6]: 649.2 x10_4/ul | Ret [6]: 4.6% | WBC [6]: 97.3 x10_2/uL | APTT [7]: 25.4 s | Bas [7]: 0% | Eos [7]: 0.6% | Fbg [7]: 327 mg/dL | Hb [7]: 14 g/dL | Ht [7]: 41.1% | Lym [7]: 86% | MCHC [7]: 34% | MCV [7]: 61.4 fL | Mono [7]: 3.2% | Neu [7]: 9.2% | Plat [7]: 119.2 x10_4/uL | RBC [7]: 670 x10_4/ul | Ret [7]: 2.8% | WBC [7]: 100.3 x10_2/uL | APTT [8]: 26.7 s | Bas [8]: 0% | Eos [8]: 0.8% | Fbg [8]: 332.2 mg/dL | Ht [8]: 42.1% | Lym [8]: 83% | MCH [8]: 19 pg | MCHC [8]: 35.1% | MCV [8]: 54.2 fL | Mono [8]: 2.8% | Plat [8]: 118.9 x10_4/uL | RBC [8]: 777.6 x10_4/ul | Ret [8]: 1.9% | WBC [8]: 87.9 x10_2/uL | KIDNEY_L [3]: 1.1 g | KIDNEY_R [3]: 1.1 g | KIDNEY_TOTAL [3]: 2.1 g | KIDNEY_L [4]: 1.3 g | KIDNEY_R [4]: 1.3 g | KIDNEY_TOTAL [4]: 2.5 g | KIDNEY_L [5]: 1.3 g | KIDNEY_R [5]: 1.3 g | KIDNEY_TOTAL [5]: 2.6 g | LIVER [3]: 11.2 g | LIVER [4]: 13.5 g | LIVER [5]: 13.9 g | ALP [3]: 1757.2 IU/L | ALT [3]: 40.6 IU/L | AST [3]: 82.6 IU/L | CRE [3]: 0.2 mg/dL | DBIL [3]: 0 mg/dL | GLC [3]: 169.6 mg/dL | IP [3]: 7 mg/dL | K [3]: 4.7 meq/L | LDH [3]: 186 IU/L | Na [3]: 140 meq/L | PL [3]: 143 mg/dL | RALB [3]: 3.1 g/dL | TBIL [3]: 0.006 mg/dL | TC [3]: 70.4 mg/dL | TG [3]: 110 mg/dL | TP [3]: 5.6 g/dL | gamma-GTP [3]: 1.6 IU/L | ALP [4]: 1299.2 IU/L | ALT [4]: 41.4 IU/L | AST [4]: 84.2 IU/L | CRE [4]: 0.2 mg/dL | Ca [4]: 11 mg/dL | DBIL [4]: 0 mg/dL | GLC [4]: 170.4 mg/dL | IP [4]: 6.8 mg/dL | K [4]: 4.4 meq/L | LDH [4]: 147 IU/L | PL [4]: 148 mg/dL | RALB [4]: 3.2 g/dL | TBIL [4]: 0.006 mg/dL | TC [4]: 74.2 mg/dL | TG [4]: 131.2 mg/dL | TP [4]: 6 g/dL | gamma-GTP [4]: 3.4 IU/L | ALP [5]: 1001.8 IU/L | ALT [5]: 40.6 IU/L | AST [5]: 78 IU/L | BUN [5]: 18 mg/dL | CRE [5]: 0.2 mg/dL | Ca [5]: 11 mg/dL | DBIL [5]: 0 mg/dL | GLC [5]: 179.6 mg/dL | IP [5]: 6.1 mg/dL | K [5]: 4.2 meq/L | LDH [5]: 131 IU/L | PL [5]: 134.2 mg/dL | RALB [5]: 3.2 g/dL | TBIL [5]: 0.004 mg/dL | TC [5]: 72.4 mg/dL | TG [5]: 96 mg/dL | TP [5]: 6.3 g/dL | gamma-GTP [5]: 2 IU/L | TERMINAL_BW [9]: 210.3 g | APTT [10]: 23.5 s | Bas [10]: 0% | Eos [10]: 1.2% | Fbg [10]: 288 mg/dL | Hb [10]: 13 g/dL | Ht [10]: 39.9% | Lym [10]: 85.8% | MCHC [10]: 32.7% | MCV [10]: 62.8 fL | Mono [10]: 3.2% | Neu [10]: 8.8% | PT [10]: 16.4 s | Plat [10]: 122.5 x10_4/uL | RBC [10]: 635.4 x10_4/ul | Ret [10]: 2.7% | WBC [10]: 75.4 x10_2/uL | KIDNEY_L [9]: 0.9 g | KIDNEY_R [9]: 1 g | KIDNEY_TOTAL [9]: 1.9 g | LIVER [9]: 9.3 g | ALP [9]: 1408.4 IU/L | ALT [9]: 33.8 IU/L | BUN [9]: 16.4 mg/dL | CRE [9]: 0.2 mg/dL | DBIL [9]: 0.002 mg/dL | GLC [9]: 170.4 mg/dL | IP [9]: 7 mg/dL | K [9]: 4.6 meq/L | Na [9]: 140.2 meq/L | PL [9]: 129.6 mg/dL | RALB [9]: 3.1 g/dL | TBIL [9]: 0.008 mg/dL | TC [9]: 63.2 mg/dL | TG [9]: 84.4 mg/dL | TP [9]: 5.5 g/dL | gamma-GTP [9]: 1.4 IU/L | TERMINAL_BW [11]: 215.5 g | TERMINAL_BW [12]: 246.4 g | TERMINAL_BW [13]: 260.5 g | APTT [14]: 27.1 s | Bas [14]: 0% | Eos [14]: 0.8% | Fbg [14]: 285.8 mg/dL | Hb [14]: 13.7 g/dL | Ht [14]: 41.4% | Lym [14]: 83.6% | MCV [14]: 62.3 fL | Mono [14]: 4.8% | Neu [14]: 9.6% | PT [14]: 15.7 s | Plat [14]: 124.5 x10_4/uL | RBC [14]: 665.8 x10_4/ul | Ret [14]: 1.5% | WBC [14]: 46.7 x10_2/uL | APTT [15]: 26.8 s | Bas [15]: 0% | Eos [15]: 0.4% | Fbg [15]: 299.6 mg/dL | Hb [15]: 14.1 g/dL | Lym [15]: 80.8% | MCHC [15]: 33.9% | MCV [15]: 59.3 fL | Mono [15]: 4.6% | Plat [15]: 50.2 x10_4/uL | RBC [15]: 701 x10_4/ul | Ret [15]: 0.8% | WBC [15]: 57.1 x10_2/uL | APTT [16]: 25.4 s | Bas [16]: 0% | Eos [16]: 0% | Fbg [16]: 275.2 mg/dL | Hb [16]: 11.8 g/dL | Ht [16]: 33.8% | Lym [16]: 81% | MCHC [16]: 34.8% | MCV [16]: 55.8 fL | Mono [16]: 3.6% | PT [16]: 15.6 s | Plat [16]: 66.5 x10_4/uL | RBC [16]: 607.8 x10_4/ul | Ret [16]: 3.1% | WBC [16]: 60.4 x10_2/uL | KIDNEY_L [11]: 0.9 g | KIDNEY_R [11]: 1 g | KIDNEY_TOTAL [11]: 1.9 g | KIDNEY_L [12]: 1.1 g | KIDNEY_R [12]: 1.1 g | KIDNEY_TOTAL [12]: 2.2 g | KIDNEY_L [13]: 1.2 g | KIDNEY_R [13]: 1.2 g | KIDNEY_TOTAL [13]: 2.4 g | LIVER [11]: 8.8 g | ALP [11]: 1401.8 IU/L | ALT [11]: 41.4 IU/L | AST [11]: 102 IU/L | CRE [11]: 0.2 mg/dL | DBIL [11]: 0.002 mg/dL | GLC [11]: 170.8 mg/dL | IP [11]: 7.3 mg/dL | K [11]: 4.4 meq/L | Na [11]: 140.4 meq/L | PL [11]: 118.6 mg/dL | RALB [11]: 3.2 g/dL | TBIL [11]: 0.012 mg/dL | TC [11]: 66 mg/dL | TG [11]: 38.2 mg/dL | TP [11]: 6 g/dL | gamma-GTP [11]: 1 IU/L | ALP [12]: 1127 IU/L | ALT [12]: 48 IU/L | AST [12]: 93.2 IU/L | BUN [12]: 16.6 mg/dL | CRE [12]: 0.2 mg/dL | DBIL [12]: 0 mg/dL | GLC [12]: 170.4 mg/dL | IP [12]: 6.6 mg/dL | K [12]: 4.5 meq/L | LDH [12]: 161 IU/L | PL [12]: 139.8 mg/dL | RALB [12]: 3.2 g/dL | TBIL [12]: 0.016 mg/dL | TC [12]: 74.8 mg/dL | TG [12]: 83.4 mg/dL | TP [12]: 5.8 g/dL | gamma-GTP [12]: 1.8 IU/L | ALP [13]: 682.8 IU/L | ALT [13]: 40 IU/L | AST [13]: 97.8 IU/L | BUN [13]: 22 mg/dL | CRE [13]: 0.2 mg/dL | DBIL [13]: 0.016 mg/dL | GLC [13]: 170 mg/dL | IP [13]: 6.2 mg/dL | K [13]: 4.5 meq/L | LDH [13]: 533 IU/L | PL [13]: 127.8 mg/dL | RALB [13]: 3 g/dL | TBIL [13]: 0.052 mg/dL | TC [13]: 78.6 mg/dL | TG [13]: 48.8 mg/dL | TP [13]: 6 g/dL | gamma-GTP [13]: 1.8 IU/L
